These compounds were tested against T1, Full-length, GST-tagged, human CaMKIIδ (Homo sapiens, UniProt Q13557) (assay: CaMKIIδ binding assay (TR-FRET with BODIPY-labeled probe ligand)). Conditions: CaMKIIδ binding assay, results of Table 2.
T1 construct: Full-Length, Glutathione-S-Transferase(GST)-Tagged, Human CaMKIIδ was purchased from Carna Biosciences; purchased Carna Biosciences 02-111
Description: In vitro CaMKIIδ inhibitory activity was evaluated by a binding assay.
Full-Length, Glutathione-S-Transferase(GST)-Tagged, Human CaMKIIδ was purchased from Carna Biosciences (product #02-111, Kobe, Japan). Full-length bovine calmodulin was purchased from Wako Pure Chemical Industries (Osaka, Japan). Terbium-labeled anti-GST antibody (Tb-anti-GST Ab) was purchased from Life Technologies (Carlsbad, Calif., USA). Boron-dipyrromethene (BODIPY)-labeled probe ligand was synthesized as described below.
Time-Resolved Fluorescence Resonance Energy Transfer (TR-FRET) Assay
All assays were conducted using 384-well, white, flat-bottomed plates (product #784075, Greiner Bio-One, Frickenhausen, Germany) in kinase assay buffer, which consists of 50 mM HEPES pH 7.6, 10 mM MgCl2, 1 mM EGTA, 0.01% Brig-35, 0.1 mM DTT). The fluorescent probe ligand was added at a final concentration of 300 nM to solutions containing 0.21 nM Tb-anti-GST Ab, 1 mM CaCl2), 10 μg/mL calmodulin, and 0.5 nM GST-tagged CaMKIIδ. After shaded incubation of the protein-probe mixture on ice for 30 min, the premix was dispensed in the assay plate including test inhibitors with 4 fold dilution series of eight concentrations. After 1 hr incubation at room temperature, TR-FRET signals were measured in duplicate using an EnVision microplate reader (Perkin Elmer, Waltham, Mass., USA). The solution in each well was excited with a laser (λ=340 nm) reflected by a dichroic mirror (D400/D505 (Perkin Elmer) through an excitation filter (UV (TRF) 340, (Perkin Elmer)), and fluorescence from Tb and BODIPY were detected through two emission filters (CFP 495 (Perkin Elmer) for Tb, Emission 520 (Perkin Elmer) for BODIPY).
The percentage of inhibition of test compounds was calculated according to equation (1) Inhibition (%)=100×([…]−T)/(μH−μL) (1)
Where T is the value of the wells containing test compounds and μH and μL are the mean values of the 0% and 100% inhibition control wells, respectively. The values of the 0 and 100% controls were the signals obtained in the absence and presence of 3 μM its parent compound, respectively. The half maximal inhibitory concentration (IC50) of test compounds was calculated by fitting the data with the logistic equation using XLfit (IDBS, Guildford, UK). The IC50 was classified according to the following activity ranks.

T1 sequence (Q13557 1-478 isoform Q13557-12): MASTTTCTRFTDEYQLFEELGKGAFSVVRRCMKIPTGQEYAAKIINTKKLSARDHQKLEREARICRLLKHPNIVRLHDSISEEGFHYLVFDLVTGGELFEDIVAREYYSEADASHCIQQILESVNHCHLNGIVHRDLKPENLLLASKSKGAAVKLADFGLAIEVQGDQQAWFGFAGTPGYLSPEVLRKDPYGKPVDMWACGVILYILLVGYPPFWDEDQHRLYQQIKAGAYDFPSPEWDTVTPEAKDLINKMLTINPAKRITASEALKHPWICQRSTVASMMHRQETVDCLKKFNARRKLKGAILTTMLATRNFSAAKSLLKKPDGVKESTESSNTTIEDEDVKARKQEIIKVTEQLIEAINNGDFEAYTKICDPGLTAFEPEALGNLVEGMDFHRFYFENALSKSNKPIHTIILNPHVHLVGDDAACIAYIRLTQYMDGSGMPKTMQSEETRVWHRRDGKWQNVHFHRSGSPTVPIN

Compound	IC50
C[C@@H](Cn1cnnn1)Oc1cc(-c2cnc(Nc3ccc4c(c3)CCN4C(=O)C3CCN(C)CC3)nc2)ccc1Cl [Example 452, (S)-(5-((5-(3-((1-(1H-tetrazol-1-yl)propan-2-yl)oxy)-4-chlorophenyl)pyrimidin-2-yl)amino)indolin-1-yl) (1-methylpiperidin-4-yl)methanone]	< 10 nM
COc1cnc(C2CCOCC2)cc1Nc1ncc(-c2ccc(Cl)c(O[C@@H](C)Cn3cnnn3)c2)cn1 [Example 517, (S)-5-(3-((1-(1H-tetrazol-1-yl)propan-2-yl)oxy)-4-chlorophenyl)-N-(5-methoxy-2-(tetrahydro-2H-pyran-4-yl)pyridin-4-yl)pyrimidin-2-amine]	10 to 100 nM
COCCN1CCc2cc(OC)c(Nc3ncc(-c4ccc(Cl)c(O[C@@H](C)Cn5cnnn5)c4)cn3)cc2C1 [Example 518, (S)-N-(5-(3-((1-(1H-tetrazol-1-yl)propan-2-yl)oxy)-4-chlorophenyl)pyrimidin-2-yl)-6-methoxy-2-(2-methoxyethyl)-1,2,3,4-tetrahydroisoquinolin-7-amine]	< 10 nM
C[C@@H](Cn1cnnn1)Oc1cc(-c2cnc(Nc3cc(C4CCN(C5COC5)CC4)ccc3OC(F)(F)F)nc2)ccc1Cl [Example 577, (S)-5-(3-((1-(1H-tetrazol-1-yl)propan-2-yl)oxy)-4-chlorophenyl)-N-(5-(1-(oxetan-3-yl)piperidin-4-yl)-2-(trifluoromethoxy)phenyl)pyrimidin-2-amine]	10 to 100 nM
COc1cc2c(cc1Nc1ncc(-c3ccc(Cl)c(O[C@@H](C)Cn4cnnn4)c3)cn1)NCC2 [Example 477, (S)-N-(5-(3-((1-(1H-tetrazol-1-yl)propan-2-yl)oxy)-4-chlorophenyl)pyrimidin-2-yl)-5-methoxyindolin-6-amine]	10 to 100 nM
COc1cc(C2CCCN(C3COC3)C2)ccc1Nc1ncc(-c2ccc(C#N)c(O[C@@H](C)Cn3cnnn3)c2)cn1 (stereo partly drawn) [Example 493, 2-(((S)-1-(1H-tetrazol-1-yl)propan-2-yl)oxy)-4-(2-((2-methoxy-4-(1-(oxetan-3-yl)piperidin-3-yl)phenyl)amino)pyrimidin-5-yl)benzonitrile]	< 10 nM
(S)-5-(3-((1-(1H-tetrazol-1-yl)propan-2-yl)oxy)-4-chlorophenyl)-N-(5-(piperidin-4-(trifluoromethoxy)phenyl)pyrimidin-2-amine [Example 532]	< 10 nM

Same assay, conditions: CaMKIIδ binding assay; activity class per Table 2

Compound	IC50
C[C@@H](Cn1cnnn1)Oc1cc(-c2cnc(Nc3cn(C4(C(=O)O)CCC4)nc3OCC(F)(F)F)nc2)ccc1Cl [Example 916, (S)-1-(4-((5-(3-((1-(1H-tetrazol-1-yl)propan-2-yl)oxy)-4-chlorophenyl)pyrimidin-2-yl)amino)-3-(2,2,2-trifluoroethoxy)-1H-pyrazol-1-yl)cyclobutane-1-carboxylic acid]	10 to 100 nM
C[C@@H](Cn1cnnn1)Oc1cc(-c2cnc(Nc3cn(C(C)(C)C(=O)O)nc3OCC(F)(F)F)nc2)ccc1Cl [Example 889, (S)-2-(4-((5-(3-((1-(1H-tetrazol-1-yl)propan-2-yl)oxy)-4-chlorophenyl)pyrimidin-2-yl)amino)-3-(2,2,2-trifluoroethoxy)-1H-pyrazol-1-yl)-2-methylpropanoic acid]	10 to 100 nM
CC(=O)OC(C)(C)CN1CC2(CC(n3cc(Nc4ncc(-c5ccc(Cl)c(O[C@@H](C)Cn6cnnn6)c5)cn4)c(C(C)C)n3)C2)C1 [Example 975, (S)-1-(6-(4-((5-(3-((1-(1H-tetrazol-1-yl)propan-2-yl)oxy)-4-chlorophenyl)pyrimidin-2-yl)amino)-3-isopropyl-1H-pyrazol-1-yl)-2-azaspiro[3.3]heptan-2-yl)-2-methylpropan-2-yl acetate]	< 10 nM
CC(Cn1cnnn1)Oc1cc(-c2cnc(Nc3cn(CC4(O)CCC(O)CC4)nc3OCC(F)(F)F)nc2)ccc1Cl [Example 907, cis-1-((4-((5-(3-(((S)-1-(1H-tetrazol-1-yl)propan-2-yl)oxy)-4-chlorophenyl)pyrimidin-2-yl)amino)-3-(2,2,2-trifluoroethoxy)-1H-pyrazol-1-yl)methyl)cyclohexane-1,4-diol]	< 10 nM
C[C@@H](Cn1cnnn1)Oc1cc(-c2cnc(Nc3cn(C4CC5(CNC5)C4)nc3OCC(F)(F)F)nc2)ccc1Cl [Example 925, (S)-5-(3-((1-(1H-tetrazol-1-yl)propan-2-yl)oxy)-4-chlorophenyl)-N-(1-(2-azaspiro[3.3]heptan-6-yl)-3-(2,2,2-trifluoroethoxy)-1H-pyrazol-4-yl)pyrimidin-2-amine]	< 10 nM
CC(C)c1nn(C2CC3(C2)CN(C2(C)CCOCC2)C3)cc1Nc1ncc(-c2ccc(Cl)c(O[C@@H](C)Cn3cnnn3)c2)cn1 [Example 960, (S)-5-(3-((1-(1H-tetrazol-1-yl)propan-2-yl)oxy)-4-chlorophenyl)-N-(3-isopropyl-1-(2-(4-methyltetrahydro-2H-pyran-4-yl)-2-azaspiro[3.3]heptan-6-yl)-1H-pyrazol-4-yl)pyrimidin-2-amine]	< 10 nM

Same assay, conditions: Table 2; CaMKIIδ binding assay, activity given as class A/B/C

Compound	IC50
C[C@@H](Cn1cnnn1)Oc1cc(-c2cnc(Nc3cn(C4CC5(C4)CN(C4COC4)C5)nc3C(F)(F)F)nc2)ccc1Cl [Example 832, (S)-5-(3-((1-(1H-tetrazol-1-yl)propan-2-yl)oxy)-4-chlorophenyl)-N-(1-(2-(oxetan-3-yl)-2-azaspiro[3.3]heptan-6-yl)-3-(trifluoromethyl)-1H-pyrazol-4-yl)pyrimidin-2-amine]	< 10 nM
C[C@@H](Cn1cnnn1)Oc1cc(-c2cnc(Nc3cn(CC(C)(C)O)nc3OCC(F)(F)F)nc2)ccc1Cl [Example 816, (S)-1-(4-((5-(3-((1-(1H-tetrazol-1-yl)propan-2-yl)oxy)-4-chlorophenyl)pyrimidin-2-yl)amino)-3-(2,2,2-trifluoroethoxy)-1H-pyrazol-1-yl)-2-methylpropan-2-ol]	< 10 nM
C[C@@H](Cn1cnnn1)Oc1cc(-c2cnc(Nc3cn(CS(C)(=O)=O)nc3C(F)(F)F)nc2)ccc1Cl [Example 848, (S)-5-(3-((1-(1H-tetrazol-1-yl)propan-2-yl)oxy)-4-chlorophenyl)-N-(1-((methylsulfonyl)methyl)-3-(trifluoromethyl)-1H-pyrazol-4-yl)pyrimidin-2-amine]	< 10 nM
C[C@@H](Cn1cnnn1)Oc1cc(-c2cnc(Nc3cn([C@H]4CC[C@@H](N5CCOCC5)CC4)nc3OCC(F)F)nc2)ccc1F [Example 834, 5-(3-(((S)-1-(1H-tetrazol-1-yl)propan-2-yl)oxy)-4-fluorophenyl)-N-(3-(2,2-difluoroethoxy)-1-(cis-4-morpholinocyclohexyl)-1H-pyrazol-4-yl)pyrimidin-2-amine]	10 to 100 nM
C[C@@H](Cn1cnnn1)Oc1cc(-c2cnc(Nc3cn([C@H]4CC[C@@H](N5CCOCC5)CC4)nc3OC[C@@H]3CC3(F)F)nc2)ccc1Cl [Example 870, 5-(3-(((S)-1-(1H-tetrazol-1-yl)propan-2-yl)oxy)-4-chlorophenyl)-N-(3-(((S)-2,2-difluorocyclopropyl)methoxy)-1-(cis-4-morpholinocyclohexyl)-1H-pyrazol-4-yl)pyrimidin-2-amine]	< 10 nM
C[C@@H](Cn1cnnn1)Oc1cc(-c2cnc(Nc3cn([C@H]4CC[C@H](N5CCOCC5)CC4)nc3C(F)(F)F)nc2)ccc1F [Example 808, 5-(3-(((S)-1-(1H-tetrazol-1-yl)propan-2-yl)oxy)-4-fluorophenyl)-N-(1-(trans-4-morpholinocyclohexyl)-3-(trifluoromethyl)-1H-pyrazol-4-yl)pyrimidin-2-amine]	< 10 nM

Same assay, conditions: Table 2; activity class for CaMKIIδ

Compound	IC50
COc1cc2c(cc1Nc1ncc(-c3ccc(C#N)c(O[C@@H](C)Cn4cnnn4)c3)cn1)N(C(=O)C(F)(F)F)CCC2 [Example 585, (S)-2-((1-(1H-tetrazol-1-yl)propan-2-yl)oxy)-4-(2-((6-methoxy-1-(2,2,2-trifluoroacetyl)-1,2,3,4-tetrahydroquinolin-7-yl)amino)pyrimidin-5-yl)benzonitrile]	10 to 100 nM
C[C@@H](Cn1cnnn1)Oc1cc(-c2cnc(Nc3cn(CC4CN(Cc5ccccc5)CCO4)nc3C(F)(F)F)nc2)ccc1Cl (stereo partly drawn) [Example 641, 5-(3-(((S)-1-(1H-tetrazol-1-yl)propan-2-yl)oxy)-4-chlorophenyl)-N-(1-((4-benzylmorpholin-2-yl)methyl)-3-(trifluoromethyl)-1H-pyrazol-4-yl)pyrimidin-2-amine]	≥ 100 nM

Source: US10543212B2, “Substituted amines for treating cardiac diseases” (Cardurion Pharmaceuticals, LLC, priority 2017, dated 2020)
